Data taken from patent US9822130B2, “Triazolo-pyrazinyl derivatives useful as soluble guanylate cyclase activators” (Merck Sharp & Dohme Corp., priority 2014, dated 2017).

Molecular target: T1, sGC α1/β1 heterodimer stably expressed in CHO-K1 cell line (CHO-K1/sGC) (Homo sapiens, UniProt Q02108+Q02153)
T1 construct: expressed in transfected cells
T1 sequence (Q02108 1-690): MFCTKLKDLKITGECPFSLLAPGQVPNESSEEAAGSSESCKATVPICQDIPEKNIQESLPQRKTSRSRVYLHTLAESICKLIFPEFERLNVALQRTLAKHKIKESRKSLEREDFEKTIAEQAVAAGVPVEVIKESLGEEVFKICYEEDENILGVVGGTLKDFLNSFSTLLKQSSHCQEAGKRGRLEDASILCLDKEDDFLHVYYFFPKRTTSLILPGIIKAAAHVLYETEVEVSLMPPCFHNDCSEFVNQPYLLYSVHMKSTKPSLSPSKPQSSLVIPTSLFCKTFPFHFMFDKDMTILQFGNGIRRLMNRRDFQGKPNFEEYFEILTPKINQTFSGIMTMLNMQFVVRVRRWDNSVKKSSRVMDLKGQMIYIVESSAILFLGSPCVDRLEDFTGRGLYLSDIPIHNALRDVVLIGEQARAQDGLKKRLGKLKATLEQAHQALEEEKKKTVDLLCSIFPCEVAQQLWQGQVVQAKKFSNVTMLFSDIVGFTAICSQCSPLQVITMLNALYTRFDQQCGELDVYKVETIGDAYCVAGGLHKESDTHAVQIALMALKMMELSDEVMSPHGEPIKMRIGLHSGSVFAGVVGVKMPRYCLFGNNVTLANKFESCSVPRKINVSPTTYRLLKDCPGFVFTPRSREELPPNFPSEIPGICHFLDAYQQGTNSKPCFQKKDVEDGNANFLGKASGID
T1 sequence (Q02153 1-619): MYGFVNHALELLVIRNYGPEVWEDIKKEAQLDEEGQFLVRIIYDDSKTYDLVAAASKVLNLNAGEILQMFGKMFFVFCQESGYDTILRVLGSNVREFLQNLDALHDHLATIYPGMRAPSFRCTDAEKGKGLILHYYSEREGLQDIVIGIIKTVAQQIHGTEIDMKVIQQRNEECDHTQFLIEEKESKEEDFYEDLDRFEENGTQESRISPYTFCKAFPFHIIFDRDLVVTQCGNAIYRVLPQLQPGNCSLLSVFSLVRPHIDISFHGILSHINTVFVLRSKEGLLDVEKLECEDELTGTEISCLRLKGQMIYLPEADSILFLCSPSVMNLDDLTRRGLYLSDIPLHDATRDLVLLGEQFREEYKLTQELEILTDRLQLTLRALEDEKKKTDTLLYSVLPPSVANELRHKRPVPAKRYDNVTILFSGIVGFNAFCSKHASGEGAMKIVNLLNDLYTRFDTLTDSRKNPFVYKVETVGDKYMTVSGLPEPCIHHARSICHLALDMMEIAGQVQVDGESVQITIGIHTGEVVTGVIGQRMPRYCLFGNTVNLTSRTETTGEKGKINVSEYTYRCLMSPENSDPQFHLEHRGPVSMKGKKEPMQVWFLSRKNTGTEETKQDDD
Assay: Cell-based sGC Functional Assay (CASA Assay), cGMP generation
Conditions: CHO-K1/sGC cells, 1 hr at 37° C., cGMP by HTRF, presence or absence of 1 μM DETA-NO not given; for EC50: 4P fit, read-out: IP (nM) (inflection point); for Emax: read-out: % Act. (percent activation relative to maximum cGMP production of Compound A = 100%)
In short: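 Readout is HTRF cGMP in lysates, normalised to the maximal response of reference sGC activator Compound A (100%), with a 4P fit giving IP and fold induction. Cells were CHO-K1/sGC (human α1/β1) in EBSS buffer with IBMX, incubated 1 hr at 37° C with compound. Run with and without 1 μM DETA-NO; final DMSO 2.5%.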

| Structure (SMILES) | EC50 [nM] | Emax [%] |
| --- | --- | --- |
| CCCCc1nc(-c2nc(O)c3c(n2)NC(=O)[C@@]3(C)c2ccc(F)cc2)cn2ncnc12 [Example 154A, (S)-2-(8-butyl-[1,2,4]triazolo[1,5-a]pyrazin-6-yl)-5-(4-fluorophenyl)-4-hydroxy-5-methyl-5,7-dihydro-6H-pyrrolo[2,3-d]pyrimidin-6-one] | 27.2 | 100 |
| CCCCc1nc(-c2nc(O)c3c(n2)NC(=O)C3(C)c2ccc(F)cn2)cn2ncnc12 (centres unmarked) [Example 155B, 2-(8-butyl-[1,2,4]triazolo[1,5-a]pyrazin-6-yl)-5-(5-fluoropyridin-2-yl)-4-hydroxy-5-methyl-5H-pyrrolo[2,3-d] pyrimidin-6(7H)-one] | 163 |  |
| CCCCc1nc(-c2nc(O)c3c(n2)NC(=O)C3(C)c2ccc(Cl)c(F)c2)cn2ncnc12 (centres unmarked) [Example 156B, 2-(8-butyl-[1,2,4]triazolo[1,5-a]pyrazin-6-yl)-5-(4-chloro-3-fluorophenyl)-4-hydroxy-5-methyl-5H-pyrrolo[2,3-d] pyrimidin-6(7H)-one] | 23.3 |  |
| CCCCc1nc(-c2nc(O)c3c(n2)NC(=O)C3(C)c2ccc(Cl)cc2)cn2ncnc12 (centres unmarked) [Example 157A, 2-(8-butyl-[1,2,4]triazolo[1,5-a]pyrazin-6-yl)-5-(4-chlorophenyl)-4-hydroxy-5-methyl-5H-pyrrolo[2,3-d]pyrimidin-6(7H)-one] | 72.7 |  |
| CCCCc1nc(-c2nc(O)c3c(n2)NC(=O)C3(C)c2ccc(F)c(F)c2)cn2ncnc12 (centres unmarked) [Example 158B, 2-(8-butyl-[1,2,4]triazolo[1,5-a]pyrazin-6-yl)-5-(3,4-difluorophenyl)-4-hydroxy-5-methyl-5H-pyrrolo[2,3-d]pyrimidin-6(7H)-one] | 102 |  |
| CCCCc1nc(-c2nc(O)c3c(n2)NC(=O)C3(C)c2ccc(C(F)(F)F)cn2)cn2ncnc12 (centres unmarked) [Example 159B, 2-(8-butyl-[1,2,4]triazolo[1,5-a]pyrazin-6-yl)-4-hydroxy-5-methyl-5-(5-(trifluoromethyl)pyridin-2-yl)-5H-pyrrolo[2,3-d]pyrimidin-6(7H)-one] | 209 |  |
| CCCCc1nc(-c2nc(O)c3c(n2)NC(=O)C3(C)c2ccc(Cl)cn2)cn2ncnc12 (centres unmarked) [Example 160A, 2-(8-butyl-[1,2,4]triazolo[1,5-a]pyrazin-6-yl)-5-(5-chloropyridin-2-yl)-4-hydroxy-5-methyl-5H-pyrrolo[2,3-d]pyrimidin-6(7H)-one] | 50.2 |  |
| CCCCc1nc(-c2nc(O)c3c(n2)NC(=O)C3(C)c2ccc(C)cn2)cn2ncnc12 (centres unmarked) [Example 161B, 2-(8-butyl-[1,2,4]triazolo[1,5-a]pyrazin-6-yl)-4-hydroxy-5-methyl-5-(5-methylpyridin-2-yl)-5H-pyrrolo[2,3-d]pyrimidin-6(7H)-one] | 303 |  |
| C[C@@]1(c2ccc(F)cc2)C(=O)Nc2nc(-c3cn4ncnc4c(Cc4ccc(F)cc4)n3)nc(O)c21 [Example 162B, (S)-2-(8-(4-fluorobenzyl)-[1,2,4]triazolo[1,5-a]pyrazin-6-yl)-5-(4-fluorophenyl)-4-hydroxy-5-methyl-5H-pyrrolo[2,3-d]pyrimidin-6(7H)-one] | 96.7 | 100 |
| CC(C)Cc1nc(-c2nc(O)c3c(n2)NC(=O)[C@@]3(C)c2ccc(F)cc2)cn2ncnc12 [Example 163A, (S)-5-(4-fluorophenyl)-4-hydroxy-2-(8-isobutyl-[1,2,4]triazolo[1,5-a]pyrazin-6-yl)-5-methyl-5,7-dihydro-6H-pyrrolo[2,3-d]pyrimidin-6-one] | 1630 |  |
| CCCc1nc(-c2nc(O)c3c(n2)NC(=O)C3(C)c2ccc(Cl)cc2)cn2ncnc12 (centres unmarked) [Example 164A, 5-(4-chlorophenyl)-4-hydroxy-5-methyl-2-(8-propyl-[1,2,4]triazolo[1,5-a]pyrazin-6-yl)-5H-pyrrolo[2,3-d]pyrimidin-6(7H)-one] | 780 |  |
| CCCc1nc(-c2nc(O)c3c(n2)NC(=O)[C@@]3(C)c2ccc(F)cc2)cn2ncnc12 [Example 165A, (S)-5-(4-fluorophenyl)-4-hydroxy-5-methyl-2-(8-propyl-[1,2,4]triazolo[1,5-a]pyrazin-6-yl)-5,7-dihydro-6H-pyrrolo[2,3-d]pyrimidin-6-one] | 1520 |  |
| CCCc1nc(-c2nc(O)c3c(n2)NC(=O)C3(C)c2ccc(Cl)c(F)c2)cn2ncnc12 (centres unmarked) [Example 166B, 5-(4-chloro-3-fluorophenyl)-4-hydroxy-5-methyl-2-(8-propyl-[1,2,4]triazolo[1,5-a]pyrazin-6-yl)-5H-pyrrolo[2,3-d]pyrimidin-6(7H)-one] | 711 |  |
| CCCc1nc(-c2nc(O)c3c(n2)NC(=O)C3(c2ccc(F)c(F)c2)C2CC2)cn2ncnc12 (centres unmarked) [Example 167A, 5-cyclopropyl-5-(3,4-difluorophenyl)-4-hydroxy-2-(8-propyl-[1,2,4]triazolo[1,5-a]pyrazin-6-yl)-5H-pyrrolo[2,3-d]pyrimidin-6(7H)-one] | 1090 | 70 |
| CCCc1nc(-c2nc(O)c3c(n2)NC(=O)C3(C)c2ccc(Cl)cc2)cn2nc(C)nc12 (centres unmarked) [Example 168A, 5-(4-chlorophenyl)-4-hydroxy-5-methyl-2-(2-methyl-8-propyl-[1,2,4]triazolo[1,5-a]pyrazin-6-yl)-5H-pyrrolo[2,3-d]pyrimidin-6(7H)-one] | 1450 |  |
| CC1(c2ccc(F)c(F)c2)C(=O)Nc2nc(-c3cn4ncnc4c(CCC(F)(F)C(F)(F)F)n3)nc(O)c21 (centres unmarked) [Example 169B, 5-(3,4-Difluorophenyl)-4-hydroxy-5-methyl-2-(8-(3,3,4,4,4-pentafluorobutyl)-[1,2,4]triazolo[1,5-a]pyrazin-6-yl)-5,7-dihydro-6H-pyrrolo[2,3-d]pyrimidin-6-one] | 111 |  |
| CC1(c2ccccc2F)C(=O)Nc2nc(-c3cn4ncnc4c(CCC(F)(F)C(F)(F)F)n3)nc(O)c21 (centres unmarked) [Example 170A, 5-(2-Fluorophenyl)-4-hydroxy-5-methyl-2-(8-(3,3,4,4,4-pentafluorobutyl)-[1,2,4]triazolo [1,5-a]pyrazin-6-yl)-5,7-dihydro-6H-pyrrolo [2,3-d]pyrimidin-6-one] | 9.5 |  |
| CCCCc1nc(-c2nc(O)c3c(n2)NC(=O)C3(C)c2cccc(F)c2)cn2ncnc12 (centres unmarked) [Example 171A, 2-(8-Butyl-[1,2,4]triazolo[1,5-a]pyrazin-6-yl)-5-(3-fluorophenyl)-4-hydroxy-5-methyl-5,7-dihydro-6H-pyrrolo[2,3-d]pyrimidin-6-one] | 137 | 90 |
| C[C@@]1(c2ccc(F)cc2)C(=O)Nc2nc(-c3cn4ncnc4c(CCC(F)(F)C(F)(F)F)n3)ncc21 [Example 172A, (S)-5-(4-fluorophenyl)-5-methyl-2-(8-(3,3,4,4,4-pentafluorobutyl)-[1,2,4]triazolo[1,5-a]pyrazin-6-yl)-5,7-dihydro-6H-pyrrolo[2,3-d]pyrimidin-6-one] | 212 |  |
| CC(C)Cc1nc(-c2ncc3c(n2)NC(=O)[C@@]3(C)c2ccc(F)cc2)cn2ncnc12 [Example 173A, (S)-5-(4-fluorophenyl)-2-(8-isobutyl-[1,2,4]triazolo[1,5-a]pyrazin-6-yl)-5-methyl-5,7-dihydro-6H-pyrrolo[2,3-d]pyrimidin-6-one] | 574 |  |
| C[C@@]1(c2ccc(F)cc2)C(=O)Nc2nc(-c3cn4ncnc4c(CCC(F)(F)F)n3)ncc21 [Example 174A, (S)-5-(4-fluorophenyl)-5-methyl-2-(8-(3,3,3-trifluoropropyl)-[1,2,4]triazolo[1,5-a]pyrazin-6-yl)-5,7-dihydro-6H-pyrrolo[2,3-d]pyrimidin-6-one] | 1350 |  |
| CC1(c2ccc(Cl)cn2)C(=O)Nc2nc(-c3cn4ncnc4c(CCC(F)(F)C(F)(F)F)n3)ncc21 (centres unmarked) [Example 175A, 5-(5-chloropyridin-2-yl)-5-methyl-2-(8-(3,3,4,4,4-pentafluorobutyl)-[1,2,4]triazolo[1,5-a]pyrazin-6-yl)-5H-pyrrolo[2,3-d]pyrimidin-6(7H)-one] | 384 |  |
